The text below walks through data of patent US8496964B2, “Controlled release micro-capsule for osteogenic action” (Council of Scientific & Industrial Research, priority 2009, dated 2013).

One series deals with OVx rats. The settings on record: cited from earlier work.
For series [1], the system named is ovariectomized (OVx) rats. The experiment in a line: Trabecular bone strength, Bone Strength Tester TK-252C. The note with it: one month treatment. It is filed as in vivo, female Sprague Dawley rats. The procedure:
(§1) The study was conducted in accordance with current legislation on animal experiments [Institutional Animal Ethical Committee (IAEC)] at C.D.R.I. Forty female Sprague Dawley rats weighing 200 g were taken for the study (n=10/group). Thirty rats were bilaterally ovariectomized (OVx). The other 10 rats were exposed to a sham surgical procedure. All rats were individually housed at 21° C., in 12-h/12-h light-dark cycles. Normal chow diet and water was provided ad libitum. The rats were left for 4 weeks to develop osteopenia. The animals were divided into 4 groups Sham, Ovaticetomized group (Ovx), Ovx+Kaempferol (Ovaticetomized group treated with Kaempferol) and Ovx+F (Ovaticetomized group treated with formulation of Kaempferol). Animals were treated for one month then sacrificed and BMD was determined.
This test predominantly measured trabecular bone strength using a Bone Strength Tester TK-252C (Muromachi Kikai Co. Ltd., Tokyo, Japan). The bone strength for all the groups was measured as reported in this invention.

For series [2], the system named is ovariectomized (OVx) rats. The experiment in a line: Bone mineral density (BMD) by DEXA after one month of oral administration. It is filed as in vivo, female Sprague Dawley rats. The protocol: as §1
BMD was determined by DEXA (Dual Energy X-ray Absorptiometry) using a Hologic QDR 4500A x-ray densitometer with high-resolution small animal software. BMD of the excised bones (left femurs, tibia, and lumbar vertebrae) were studied at the end of experiment. Left femurs were placed on their posterior surfaces, and BMD of the sub-regions was assessed. Distal and proximal regions corresponded to the cancellous bone and central to the cortical bone. Results are given in g/cm^2 as represented in FIG. 5.

Series [3] is described as follows: In vitro Kaempferol release in SGF and SIF. It is filed as physicochemical. The note with it: SIF compared with SGF. An excerpt: For in-vitro release study the ultra sink condition was maintained. Briefly, Dried pure Kaempferol dispersed in PBS, the Kaempferol-loaded CaCO3 MP (CaCO3-Kaempferol) and the encapsulated Kaempferol-loaded microcapsules suspension in same concentration were taken in centrifuge tube in one ml phosphate buffer saline (PBS). Two different pH solutions were used as the release medium [a simulated gastric fluid (SGF) (pH 1.2), prepared by diluting a concentrated HCl solution] and [a simulated intestinal fluid (SIF) (pH 7.4), prepared with 0.02M phosphate buffer saline]. The sample was maintained under horizontal agitation at 37° C. in vortex. At different time intervals the dispersion was centrifuged at 10,000 rpm for 5 min. and the supernatant was assayed for Kaempferol using RP-HPLC method at 370 nm against reagent blank. After each sampling the medium was replaced with fresh buffer. It was also ensured that no extra tiny particles are left in the supernatant.

The next series in a line: in vivo. The settings on record: rat, po, 1 mg/kg. The protocol: Kaempferol (free; 1 mg/kg) in 20% ethanol was orally administered by gavage. Following administration, the rats were sacrificed at 0.25, 0.5, 1.0, 1.5, 2.0, 2.5, 3.0, 4.0, 6.0, and 24 h to obtain serum and bone marrow. After protein precipitation, concentration of Kaempferol in serum and bone marrow was determined by HPLC. […] Similarly formulated (LbL based assembly) Kaempferol (equivalent to 1 mg/kg of free Kaempferol) was administered orally using gavage. Following administration, the rats were sacrificed at 0.25, 0.5, 1.0, 1.5, 2.0, 2.5, 3.0, 4.0, 6.0, and 24 h to obtain serum and bone marrow. After protein precipitation concentration of Kaempferol in serum and bone marrow was determined by HPLC. The mean serum pharmacokinetics profile (for the three rats at each time point) of kaempferol on administration of formulation was calculated over 24 h. Rapid absorption of Kaempferol is evident, which appeared to peak after 1 h and can be detected for as long as 24 h post administration.

The mark [4] stands for this setting: compared with OVx group treated with vehicle.
[5] abbreviates: one month oral treatment, excised bone.

SMILES strings stand for the structures.

Broadly, the AUC(0-t) is exposure summed from dosing to a finite time, without extrapolation to infinity. One may read the Tmax as the time from dosing to the highest level. In general, Cmax refers to the peak of the concentration-time curve. Turning to `O=c1c(O)c(-c2ccc(O)cc2)oc2cc(O)cc(O)c12` [Kaempferol], in the series on OVx rats, the bone sparing action result is “exerts bone sparing action” and the “estrogen agonistic effect at the uterine level” value was “no estrogen agonistic effect”. In addition, in the series with OVx rats (setting [4]), the “adipocyte differentiation from bone marrow cells” value is reported as “inhibition” and the osteoprogenitor cells result is recorded as “increase”. In addition, in series [1], the “bone biomechanical strength over OVx+vehicle group” value is reported as “significantly higher”. The molecule further returned a Bone strength in series [1] (trabecular bone) of 209.4 ± 21.52 N/mm. For the same molecule, in series [2] (setting [5]), the “Bone Mineral Density, Femur diaphysis” value stood at 0.2658 ± 0.01 g/cm^2; the “Bone Mineral Density, Femur global” value is on record as 0.262 ± 0.01 g/cm^2; the “Bone Mineral Density, Tibia Head” value amounted to 0.2835 ± 0.015 g/cm^2; the “Bone Mineral Density, Vertebrae global” value is reported as 0.1847 ± 0.013 g/cm^2. Besides, in series [2] (one month treatment), the “trabecular BMD over OVx+vehicle group” value is listed as “significantly higher”. Besides, the Kaempferol saturation solubility entry in series [3] is “much higher”. In addition, in “in vivo”, the area under the curve AUC(0-t) was 1420 ng·h/mL, the time to peak (Tmax) worked out at 30 min, the “time after which bone marrow level went below the detection limit” value amounted to 2.5 h and the “time after which serum level went below the detection limit” value came out at 6 h. Also, in the series “in vivo”, the “time of Cmax in bone marrow” value stood at 90 min. The Cmax in the series “in vivo” (Cmax of Kaempferol in bone marrow) turned out to be 194 ng/mL. The molecule also gave a maximum concentration (Cmax) in “in vivo” (Cmax of Kaempferol in serum) of 583 ± 229 ng/mL.
